In patent publication US3982012A, “4-Hydroxy-benzimidazole compounds and therapeutic compositions” (Boehringer Mannheim G.m.b.H., priority 1974, dated 1976):

Legend:
[1] = system: cardiac β-receptor; experiment: cardiac β-receptor blocking activity: inhibition of isoprenalin tachycardia in wake rabbits; conditions: for LD50/DE250: ratio of mouse i.v. LD50 to rabbit i.v. DE250 (therapeutic breadth); for Heartbeat Frequency x ± sx / DE250: wake rabbits; for Heartbeat Frequency x ± sx: 30 min later isoprenalin i.v.; for DE250: interpolated dosage which limits the frequency increase to 250 beats/min
Method: (§1) The following tests were carried out to determine (a) the toxicity and (b) the cardiac β-receptor blocking activity of certain test compounds by determining the inhibition of the heart beat frequency increase induced by intravenous administration of isoprenalin.
b. The β-receptor blocking activity of the test compounds was tested on wake rabbits weighing between 2 to 3.5 kg. and kept in wooden cages. EKG-electrodes were inserted into the hind quarters of the rabbits s.c. (II. lead) and the heart frequency was measured using an integrator (15 seconds) as a digital value. The test compounds were then infused through a small tube to the ear vein of the rabbits over a period of 15 minutes. 30 Minutes after the infusion isoprenalin (3,4-dihydroxy-α-[(isopropylamino)-methyl]-benzylalcohol) was injected intravenously at […].

[2] = in vivo; conditions: iv, mouse, i.v. (tail vein), five male and five female mice per dosage, read-out: Acute Toxicity LD50 Mouse
Method: as §1
a. […] The compounds, in dissolved form, were injected into the tail vein of five male and five female mice each in increasing dosages. The results (% of animals which died) were used, via programmed probability analysis, to determine the median lethal dosage (LD50).

CC(=O)Nc1ccc(OCC(O)CNC(C)C)cc1 (stereo not drawn) [Compound A, 4-(2-Hydroxy-3-isopropylamino-propoxy)-acetanilide, reference compound]
LD50/DE250 [1]: 28 | Heartbeat Frequency x ± sx ([1]; 0.5 mg/kg i.v. infusion): 307 ± 7 beats/min | Heartbeat Frequency x ± sx ([1]; 1.0 mg/kg i.v. infusion): 264 ± 9 beats/min | Heartbeat Frequency x ± sx ([1]; 2.0 mg/kg i.v. infusion): 250 ± 4 beats/min | Heartbeat Frequency x ± sx ([1]; 5.0 mg/kg i.v. infusion): 246 ± 7 beats/min | Heartbeat Frequency x ± sx ([1]; 10.0 mg/kg i.v. infusion): 217 ± 4 beats/min | Heartbeat Frequency x ± sx ([1]; 20.0 mg/kg i.v. infusion): 225 ± 6 beats/min | DE250 [1]: 2.5 mg/kg i.v.

CC(C)NCC(O)COc1cccc2ccccc12 (stereo not drawn) [Compound B, 1-Isopropylamino-3-(1-naphthoxy)-2-propanol, reference compound]
Heartbeat Frequency x ± sx ([1]; 0.01 mg/kg i.v. infusion): 342 ± 5 beats/min | Heartbeat Frequency x ± sx ([1]; 0.1 mg/kg i.v. infusion): 309 ± 9 beats/min | Heartbeat Frequency x ± sx ([1]; 0.25 mg/kg i.v. infusion): 259 ± 7 beats/min | Heartbeat Frequency x ± sx ([1]; 0.5 mg/kg i.v. infusion): 248 ± 6 beats/min | Heartbeat Frequency x ± sx ([1]; 1.0 mg/kg i.v. infusion): 210 ± 8 beats/min | Heartbeat Frequency x ± sx ([1]; 4.0 mg/kg i.v. infusion): 191 ± 6 beats/min | DE250 [1]: 0.400 mg/kg i.v.

CC(C)NCC(O)COc1cccc2nc[nH]c12 (stereo not drawn) [Compound I, 4-(3-Isopropylamino-2-hydroxy-propyloxy)-benzimidazole]
LD50 [2]: 38 mg/kg | LD50/DE250 [1]: 422 | Heartbeat Frequency x ± sx ([1]; 0.01 mg/kg i.v. infusion): 300 ± 11 beats/min | Heartbeat Frequency x ± sx ([1]; 0.05 mg/kg i.v. infusion): 292 ± 17 beats/min | Heartbeat Frequency x ± sx ([1]; 0.1 mg/kg i.v. infusion): 239 ± 6 beats/min | Heartbeat Frequency x ± sx ([1]; 0.5 mg/kg i.v. infusion): 228 ± 5 beats/min | Heartbeat Frequency x ± sx ([1]; 1.0 mg/kg i.v. infusion): 218 ± 11 beats/min | Heartbeat Frequency x ± sx ([1]; 5.0 mg/kg i.v. infusion): 219 ± 13 beats/min | DE250 [1]: 0.09 mg/kg i.v.

CC(C)(C)NCC(O)COc1cccc2nc[nH]c12 (stereo not drawn) [Compound II, 4-(3-tert.-Butylamino-2-hydroxy-propyloxy)-benzimidazole]
LD50 [2]: 28 mg/kg | LD50/DE250 [1]: 560 | Heartbeat Frequency x ± sx ([1]; 0.01 mg/kg i.v. infusion): 286 ± 12 beats/min | Heartbeat Frequency x ± sx ([1]; 0.1 mg/kg i.v. infusion): 236 ± 6 beats/min | Heartbeat Frequency x ± sx ([1]; 1.0 mg/kg i.v. infusion): 244 ± 9 beats/min | Heartbeat Frequency x ± sx ([1]; 5.0 mg/kg i.v. infusion): 273 ± 11 beats/min | DE250 [1]: 0.05 mg/kg i.v.

Cc1nc2cccc(OCC(O)CNC(C)C)c2[nH]1 (stereo not drawn) [Compound III, 2-Methyl-4-(3-isopropylamino-2-hydroxy-propyloxy)-benzimidazole]
LD50 [2]: 29 mg/kg | LD50/DE250 [1]: 170 | Heartbeat Frequency x ± sx ([1]; 0.01 mg/kg i.v. infusion): 303 ± 17 beats/min | Heartbeat Frequency x ± sx ([1]; 0.05 mg/kg i.v. infusion): 318 ± 11 beats/min | Heartbeat Frequency x ± sx ([1]; 0.1 mg/kg i.v. infusion): 255 ± 9 beats/min | Heartbeat Frequency x ± sx ([1]; 1.0 mg/kg i.v. infusion): 234 ± 11 beats/min | Heartbeat Frequency x ± sx ([1]; 5.0 mg/kg i.v. infusion): 219 ± 14 beats/min | DE250 [1]: 0.17 mg/kg i.v.

Cc1nc2cccc(OCC(O)CNC(C)(C)C)c2[nH]1 (stereo not drawn) [Compound IV, 2-Methyl-4-(3-tert.-butylamino-2-hydroxy-propyloxy)-benzimidazole]
LD50 [2]: 34 mg/kg | LD50/DE250 [1]: 425 | Heartbeat Frequency x ± sx ([1]; 0.01 mg/kg i.v. infusion): 289 ± 18 beats/min | Heartbeat Frequency x ± sx ([1]; 0.05 mg/kg i.v. infusion): 255 ± 7 beats/min | Heartbeat Frequency x ± sx ([1]; 0.1 mg/kg i.v. infusion): 248 ± 7 beats/min | Heartbeat Frequency x ± sx ([1]; 0.5 mg/kg i.v. infusion): 224 ± 8 beats/min | Heartbeat Frequency x ± sx ([1]; 1.0 mg/kg i.v. infusion): 211 ± 5 beats/min | Heartbeat Frequency x ± sx ([1]; 5.0 mg/kg i.v. infusion): 232 ± 5 beats/min | DE250 [1]: 0.08 mg/kg i.v.
